Reference: patent US10124065B2, “Lipids and lipid compositions for the delivery of active agents” (Novartis AG, priority 2013, dated 2018)

Legend:
[1] = test system: plasma Factor VII enzyme activity; experiment: Mouse Factor VII dosing / Factor VII Activity Assay; assay type: in vivo; conditions: percent knock down of plasma Factor VII activity, CD-1 mice, 48 h; for KD FVII 0.3 mg/kg: single IV dose 0.3 mg/kg, LNP Chol/DSPC/PEG-DMG 45/44/9/2
How it was run: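 Female CD-1 mice (~25 g) received a single IV tail-vein dose of lipid-nanoparticle-formulated Factor VII siRNA (0.3 or 0.03 mg/kg). Plasma taken ~48 h later; FVII activity measured chromogenically against vehicle-control plasma standard curve, reported as % knockdown.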

[2] = test system: PLK-1 mRNA; experiment: LS411N Xenograft Assay; assay type: in vivo, Nu/Nu mice; conditions: percent knock down of PLK-1 mRNA vs control in LS411N tumors, IV 3 mg/kg daily for three days
Method: Female Nu/Nu mice (6-8 weeks old) were implanted subcutaneously with 5×10^6 LS411N cells. Tumor growth was monitored by caliper measurement before treatment initiation. Mice bearing 150-250 mm^3 subcutaneous tumors were randomized and enrolled in the study. The stock siRNA formulations were diluted to […] with PBS for dosing. Animals enrolled in different groups received a single daily bolus IV injection of 3 mg/kg siRNA for three days. Tumors were harvested 24 hours post last injection to assess target gene regulation by qRT-PCR.
Lipid nanoparticles comprising lipid compounds of formula (I) and the PLK1-424 siRNA duplex sequence listed above were tested in the LS411N Xenograft Assay. The results of this assay are given in Table 5 below as a percent knock down of PLK-1 mRNA as compared to the control when administered as a single daily dose for three days at a dose of 3 mg/kg.

[3] = test system: human leptin; experiment: Mouse intravenous tail vein injection of modified synthetic leptin mRNA, human leptin ELISA; assay type: in vivo, C57BL/6 mouse; conditions: human leptin in mouse plasma, 10 μg leptin mRNA, 24 h
[4] = Particle size of lipid nanoparticle (dynamic light scattering, Malvern Zetasizer); assay type: physicochemical
How it was run: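 Sizes are average diameters of fully formed nanoparticles measured by dynamic light scattering. Samples were diluted in PBS to a count rate of about 200–400 kcts. Values are intensity-weighted Z-average sizes.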

For CCCCC/C=C\C/C=C\CCCCCCCC(=O)OCCCCOc1cc(CN(C)C)cc(OCCCCOC(=O)CCCCCCC/C=C\C/C=C\CCCCC)c1 [Example 38, (9Z,9′Z,12Z,12′Z)-((5-((dimethylamino)methyl)-1,3-phenylene)bis(oxy))bis(butane-4,1-diyl)bis(octadeca-9,12-dienoate)], the “KD FVII 0.03 mg/kg” value ([1]; single IV dose 0.03 mg/kg, LNP Chol/DSPC/S010 45/44/9/2) was 43.6%, the “KD FVII 0.3 mg/kg” value [1] was 99% and the “LS411 KD 3 × 3 mg/Kg” value ([2]; LNP Chol/DSPC/PEG-DSG 45/44/9/2) was 58%. For the same compound, the “LS411 KD 3 × 3 mg/Kg” value ([2]; LNP Chol/DSPC/S010 45/44/9/2) was 60% and the “Leptin expression IV-C57BI/6, 24 h” value [3] was 17.21 ng/mL.
For CCCCCCCCCCOC(=O)CCCCCCCOc1cc(CN(C)C)cc(OCCCCCCCC(=O)OCCCCCCCCCC)c1 [Example 57, didecyl 8,8′-((5-((dimethylamino)methyl)-1,3-phenylene)bis(oxy))dioctanoate], the “Size (nm)” value ([4]; FVII siRNA LNP, Chol/DSPC/PEG-DMG, molar ratio 45/44/9/2, Z-average) was 108.4 nm, the “Size (nm)” value ([4]; FVII siRNA LNP, Chol/DSPC/S010, molar ratio 45/44/9/2, Z-average) was 123.8 nm and the “Size (nm)” value ([4]; PLK1-424 siRNA LNP, Chol/DSPC/S010 45/44/9/2) was 116.3 nm. For the same compound, the “Size (nm)” value ([4]; leptin mRNA lipid nanoparticles) was 127.8 nm, the “KD FVII 0.3 mg/kg” value [1] was 96.7% and the “LS411 KD 3 × 3 mg/Kg” value ([2]; LNP Chol/DSPC/S010 45/44/9/2) was 60%. The “Leptin expression IV-C57BI/6, 24 h” value [3] was 9.17 ng/mL.
